# Laboratory results published in patent US5834453A, “Methods for the manufacture and use of antimicrobial sterol conjugates” (Lehigh University, priority 1997, dated 1998).
# “Also recorded” adds a separate entry of the source. Read-outs that look alike come from different tables or passages of the source.
# Legend:
# [1] = Hemolytic activity, minimal hemolytic concentration (MHC); format: cell-based, sheep; details: sheep, red blood cells;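 further: MCC here is the minimal hemolytic concentration (MHC)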
# Experimental: Hemolytic activity of the squalamine mimics according to the present invention were also studied by incubating sheep red blood cells for 24 hours at 37° C. in saline (final concentration of 0.5%) with or without respective concentrations of the squalamine mimics. The minimal hemolytic concentration (MHC) was determined as the lowest concentration of a mimic that raised visible hemolysis.
# E. cloacae (13047) = test: MIC, micro-broth dilution; format: cell-based; details: Enterobacter cloacae, 35° C., 24 hours, read-out: ANTIMICROBIAL ACTIVITY (MIC)
# Experimental: (§1) The antimicrobial activity of the compounds according to the present invention were compared with the results obtained for squalamine as reported in Proc. Nat. Acad. Sci. USA 90:1354 (1993), supra, the disclosure of which is incorporated in toto herein. The data reported in the following table is the minimum inhibitory concentration (MIC) required for complete inhibition of microbial growth. The MIC was determined utilizing known micro-broth dilution methods in which inocula of 10^6 /ml of the test organism were incubated in 0.5× trypticase soy broth at 35° C. for 24 hours. MIC's were also tested under various pH conditions, with calcium chloride or magnesium chloride, or with immobilized horse serum.
# (§2) The numbers in parentheses contained in the table correspond to accession numbers with the American Type Culture Collection (reference strains were either obtained from the American Type Culture Collection or from the Microbiology Laboratory at Memorial Sloan-Kettering Cancer Center; Bacterial strains were maintained on Columbia 5% sheep blood agar plates, and fungi were maintained on Sabouraud Dextrose agar plates).
# S. pneumoniae (6305) = test: MIC, micro-broth dilution; format: cell-based; details: Streptococcus pneumoniae, 35° C., 24 hours, read-out: ANTIMICROBIAL ACTIVITY (MIC)
# Experimental: as §1, §2
# C. neoformans (90012) = test: MIC, micro-broth dilution; format: cell-based; details: Cryptococcus neoformans, 24 h, read-out: ANTIMICROBIAL ACTIVITY (MIC)
# Experimental: as §1, §2
# S. aureus (H20809) = test: MIC, micro-broth dilution; format: cell-based; details: Staphylococcus aureus, read-out: ANTIMICROBIAL ACTIVITY (MIC)
# Experimental: as §1, §2
# P. aeruginosa (10145) = test: MIC, micro-broth dilution; format: cell-based; details: Pseudomonas aeruginosa, 35° C., 24 hours, read-out: ANTIMICROBIAL ACTIVITY (MIC)
# Experimental: as §1, §2
# S. pyrogenes (19615) = test: MIC, micro-broth dilution; format: cell-based; details: 24 h, read-out: ANTIMICROBIAL ACTIVITY (MIC)
# Experimental: as §1, §2
# S. agalactiae (13813) = test: MIC, micro-broth dilution; format: cell-based; details: Streptococcus agalactiae, 35° C., 24 hours, read-out: ANTIMICROBIAL ACTIVITY (MIC)
# Experimental: as §1, §2
# S. aureus (29213) = test: MIC, micro-broth dilution; format: cell-based; details: Staphylococcus aureus, 24 h, read-out: ANTIMICROBIAL ACTIVITY (MIC)
# Experimental: as §1, §2
# A. fumigatus (H1120) = test: MIC, micro-broth dilution; format: cell-based; details: Aspergillus fumigatus, 35° C., 24 hours, read-out: ANTIMICROBIAL ACTIVITY (MIC)
# Experimental: as §1, §2
# K. pneumoniae (13883) = test: MIC, micro-broth dilution; format: cell-based; details: Klebsiella pneumoniae, 24 h, read-out: ANTIMICROBIAL ACTIVITY (MIC)
# Experimental: as §1, §2
# E. faecium (T6480-9) = test: MIC, micro-broth dilution; format: cell-based; details: Enterococcus faecium, 35° C., 24 hours, read-out: ANTIMICROBIAL ACTIVITY (MIC)
# Experimental: as §1, §2
# S. epidermidis (12228) = test: MIC, micro-broth dilution; format: cell-based; details: Staphylococcus epidermidis, 35° C., 24 hours, read-out: ANTIMICROBIAL ACTIVITY (MIC)
# Experimental: as §1, §2
# S. marcescens (13880) = test: MIC, micro-broth dilution; format: cell-based; details: for MIC: Serratia marcescens, 24 h, read-out: ANTIMICROBIAL ACTIVITY (MIC)
# Experimental: as §1, §2
# S. aureus (25923) = test: MIC, micro-broth dilution; format: cell-based; details: Staphylococcus aureus, 35° C., 24 hours, read-out: ANTIMICROBIAL ACTIVITY (MIC)
# Experimental: as §1, §2
# C. albicans (90028) = test: MIC, micro-broth dilution; format: cell-based; details: Candida albicans, 35° C., 24 hours, read-out: ANTIMICROBIAL ACTIVITY (MIC)
# Experimental: as §1, §2
# A. fumigatus (H29709) = test: MIC, micro-broth dilution; format: cell-based; details: Aspergillus fumigatus, 35° C., 24 hours, read-out: ANTIMICROBIAL ACTIVITY (MIC)
# Experimental: as §1, §2
# C. neoformans (M68979) = test: MIC, micro-broth dilution; format: cell-based; details: Cryptococcus neoformans, 24 h, read-out: ANTIMICROBIAL ACTIVITY (MIC)
# Experimental: as §1, §2
# E. faecalis (29212) = test: MIC, micro-broth dilution; format: cell-based; details: Enterococcus faecalis, 35° C., 24 hours, read-out: ANTIMICROBIAL ACTIVITY (MIC)
# Experimental: as §1, §2
# P. vulgaris (13315) = test: MIC, micro-broth dilution; format: cell-based; details: Proteus vulgaris, 35° C., 24 hours, read-out: ANTIMICROBIAL ACTIVITY (MIC)
# Experimental: as §1, §2
# E. coli (25922) = test: MIC, micro-broth dilution; format: cell-based; details: Escherichia coli, 35° C., 24 hours, read-out: ANTIMICROBIAL ACTIVITY (MIC)
# Experimental: as §1, §2
# P. aeruginosa (2853) = test: MIC, micro-broth dilution; format: cell-based; details: Pseudomonas aeruginosa, 24 h, read-out: ANTIMICROBIAL ACTIVITY (MIC)
# Experimental: as §1, §2
smiles,measurement,setting,value
C[C@H](CCC(=O)NCCCNCCCCNCCCN)[C@H]1CC[C@H]2[C@@H]3CC[C@@H]4C[C@H](OS(=O)(=O)O)CC[C@]4(C)[C@H]3CC[C@]12C [SM-22],MCC at 24 h,[1],> 100 µg/mL
same,MIC,E. cloacae (13047),> 100 µg/mL
same,MIC,S. pneumoniae (6305),25 µg/mL
same,MIC,C. neoformans (90012),25 µg/mL
same,MIC,S. aureus (H20809); 24 h,3.13 µg/mL
same,MIC,P. aeruginosa (10145),> 100 µg/mL
same,MIC,S. pyrogenes (19615),1.56 µg/mL
same,MIC,S. agalactiae (13813),> 100 µg/mL
same,MIC,S. aureus (29213),1.56 µg/mL
same,MIC,A. fumigatus (H1120),> 100 µg/mL
same,MIC,K. pneumoniae (13883),> 100 µg/mL
same,MIC,E. faecium (T6480-9),> 100 µg/mL
same,MIC,S. epidermidis (12228),1.56 µg/mL
same,MIC,S. marcescens (13880),> 100 µg/mL
same,MIC,S. aureus (25923),1.56 µg/mL
same,MIC,C. albicans (90028),> 100 µg/mL
same,MIC,A. fumigatus (H29709),> 100 µg/mL
same,MIC,C. neoformans (M68979),25 µg/mL
same,MIC,E. faecalis (29212),> 100 µg/mL
same,MIC,P. vulgaris (13315),> 100 µg/mL
same,MIC,E. coli (25922),> 100 µg/mL
same,MIC,P. aeruginosa (2853),> 100 µg/mL
C[C@H](CCC(=O)NCCNCCNCCN)[C@H]1CC[C@H]2[C@@H]3CC[C@@H]4C[C@H](O)CC[C@]4(C)[C@H]3CC[C@]12C [SM-27],MCC at 24 h,[1],50 µg/mL
same,MIC,E. cloacae (13047),25 µg/mL
same,MIC,S. pneumoniae (6305),3.13 µg/mL
same,MIC,C. neoformans (90012),3.13 µg/mL
same,MIC,S. aureus (H20809); 24 h,6.25 µg/mL
same,MIC,P. aeruginosa (10145),25 µg/mL
same,MIC,S. pyrogenes (19615),1.56 µg/mL
same,MIC,S. agalactiae (13813),3.13 µg/mL
same,MIC,S. aureus (29213),6.25 µg/mL
same,MIC,A. fumigatus (H1120),100 µg/mL
same,MIC,K. pneumoniae (13883),6.25 µg/mL
same,MIC,E. faecium (T6480-9),12.5 µg/mL
same,MIC,S. epidermidis (12228),3.13 µg/mL
same,MIC,S. marcescens (13880),12.5 µg/mL
same,activity against S. marcescens,S. marcescens (13880); in words,found even against S. marcescens; also recorded: effective against S. marcescens
same,MIC,S. aureus (25923),6.25 µg/mL
same,MIC,C. albicans (90028),25 µg/mL
same,MIC,A. fumigatus (H29709),100 µg/mL
same,MIC,C. neoformans (M68979),3.13 µg/mL
same,MIC,E. faecalis (29212),12.5 µg/mL
same,MIC,P. vulgaris (13315),12.5 µg/mL
same,MIC,E. coli (25922),3.13 µg/mL
same,MIC,P. aeruginosa (2853),12.5 µg/mL
C[C@H](CCC(=O)NCCNCCNCCN)[C@H]1CC[C@H]2[C@@H]3C[C@H](O)[C@@H]4C[C@H](O)CC[C@]4(C)[C@H]3CC[C@]12C [SM-32],MCC at 24 h,[1],> 100 µg/mL
same,MIC,E. cloacae (13047),> 100 µg/mL
same,MIC,S. pneumoniae (6305),25 µg/mL
same,MIC,C. neoformans (90012),25 µg/mL
same,MIC,S. aureus (H20809); 24 h,25 µg/mL
same,MIC,P. aeruginosa (10145),50 µg/mL
same,MIC,S. pyrogenes (19615),12.5 µg/mL
same,MIC,S. agalactiae (13813),25 µg/mL
same,MIC,S. aureus (29213),25 µg/mL
same,MIC,A. fumigatus (H1120),50 µg/mL
same,MIC,K. pneumoniae (13883),50 µg/mL
same,MIC,E. faecium (T6480-9),100 µg/mL
same,MIC,S. epidermidis (12228),25 µg/mL
same,MIC,S. marcescens (13880),> 100 µg/mL
same,MIC,S. aureus (25923),25 µg/mL
same,MIC,C. albicans (90028),25 µg/mL
same,MIC,A. fumigatus (H29709),50 µg/mL
same,MIC,C. neoformans (M68979),25 µg/mL
same,MIC,E. faecalis (29212),100 µg/mL
same,MIC,P. vulgaris (13315),50 µg/mL
same,MIC,E. coli (25922),25 µg/mL
same,MIC,P. aeruginosa (2853),25 µg/mL
C[C@H](CCC(=O)NCCCNCCCCNCCCN)[C@H]1CC[C@H]2[C@@H]3[C@H](OS(=O)(=O)O)C[C@@H]4C[C@H](OS(=O)(=O)O)CC[C@]4(C)[C@H]3CC[C@]12C [SM-35],MCC at 24 h,[1],6.25 µg/mL
same,MIC,E. cloacae (13047),12.5 µg/mL
same,MIC,S. pneumoniae (6305),3.13 µg/mL
same,MIC,C. neoformans (90012),12.5 µg/mL
same,MIC,"S. aureus (H20809); S. aureus (H20809), 35° C., 24 hours",8.25 µg/mL
same,MIC,P. aeruginosa (10145),25 µg/mL
same,MIC,S. pyrogenes (19615),3.13 µg/mL
same,MIC,S. agalactiae (13813),6.25 µg/mL
same,MIC,S. aureus (29213),6.25 µg/mL
same,MIC,A. fumigatus (H1120),25 µg/mL
same,MIC,K. pneumoniae (13883),12.5 µg/mL
same,MIC,E. faecium (T6480-9),6.25 µg/mL
same,MIC,S. epidermidis (12228),3.13 µg/mL
same,MIC,S. marcescens (13880),> 100 µg/mL
same,MIC,S. aureus (25923),6.25 µg/mL
same,MIC,C. albicans (90028),25 µg/mL
same,MIC,A. fumigatus (H29709),25 µg/mL
same,MIC,C. neoformans (M68979),12.5 µg/mL
same,MIC,E. faecalis (29212),6.25 µg/mL
same,MIC,P. vulgaris (13315),25 µg/mL
same,MIC,E. coli (25922),6.25 µg/mL
same,MIC,P. aeruginosa (2853),12.5 µg/mL
